Results: ChEMBL document CHEMBL5614374, “Novel carbazole-oxadiazole derivatives as anti-α-glucosidase and anti-α-amylase agents: Design, synthesis, molecular docking, and biological evaluation” (Eur J Med Chem, 2024)
The source made the active and inactive calls. The rule behind the calls is not given here.

Assays:
Alpha-glucosidase [1] = molecular target: T1, Alpha-glucosidase (Saccharomyces cerevisiae S288c, UniProt P53341+P38158+P07265); assay: Inhibition of Saccharomyces cerevisiae alpha-glucosidase using p-nitrophenyl-alpha-D-glucopyranoside as substrate preincubated for 0.25 hrs followed by substrate addition and measured after 0.5 hrs by spectrophotometric analysis; format: protein assay
Alpha-amylase [2] = molecular target: T2, Alpha-amylase (Sus scrofa domesticus, UniProt Q7M328); assay: Inhibition of hog pancreatic alpha-amylase using soluble starch as substrate preincubated for 10 mins followed by substrate addition and measured after 15 mins by absorbance based analysis
T2 sequence (Q7M328 whole entry): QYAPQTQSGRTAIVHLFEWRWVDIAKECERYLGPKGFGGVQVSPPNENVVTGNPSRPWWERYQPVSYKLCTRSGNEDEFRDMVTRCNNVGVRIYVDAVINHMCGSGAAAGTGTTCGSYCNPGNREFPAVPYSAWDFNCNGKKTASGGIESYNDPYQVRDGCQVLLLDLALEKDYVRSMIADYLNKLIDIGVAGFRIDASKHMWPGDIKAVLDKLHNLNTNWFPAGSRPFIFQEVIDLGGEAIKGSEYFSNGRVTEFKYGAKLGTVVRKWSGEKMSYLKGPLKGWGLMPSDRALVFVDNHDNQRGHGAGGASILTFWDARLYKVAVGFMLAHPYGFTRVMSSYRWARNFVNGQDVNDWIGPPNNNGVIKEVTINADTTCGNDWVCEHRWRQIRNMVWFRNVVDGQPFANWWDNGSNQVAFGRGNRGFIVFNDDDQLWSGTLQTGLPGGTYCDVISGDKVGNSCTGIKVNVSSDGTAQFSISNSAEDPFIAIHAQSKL

Alpha-glucosidase [3] = molecular target: T1, Alpha-glucosidase; assay: Inhibition of Saccharomyces cerevisiae alpha-glucosidase using p-nitrophenyl-alpha-D-glucopyranoside as substrate assessed as inhibition constant of free alpha-glucosidase incubated for 7 mins by spectrophotometer based Lineweaver-Burk plot analysis; format: protein assay
[4] = molecular target: T3, Alpha-amylase (Sus scrofa domesticus) (UniProt Q7M328); assay: Mixed-type inhibition of hog pancreatic alpha-amylase using soluble starch as substrate upto 35 uM preincubated for 10 mins followed by substrate addition and measured after 15 mins by Lineweaver-Burk plot analysis; details: time 25.0 min
T3 sequence (whole entry): T2 sequence (Q7M328 whole entry)

Alpha-amylase [5] = molecular target: T2, Alpha-amylase; assay: Inhibition of hog pancreatic alpha-amylase using soluble starch as substrate assessed as inhibition constant of free alpha-amylase preincubated for 10 mins followed by substrate addition and measured after 15 mins by Lineweaver-Burk plot analysis
Alpha-amylase [6] = molecular target: T2, Alpha-amylase; assay: Inhibition of hog pancreatic alpha-amylase using soluble starch as substrate assessed as inhibition constant of enzyme-substrate complex preincubated for 10 mins followed by substrate addition and measured after 15 mins by Lineweaver-Burk plot analysis
[7] = molecular target: Alpha amylase (Homo sapiens) (UniProt P0DUB6); assay: Inhibition of alpha-amylase (unknown origin) assessed as increase in enzyme particle size at 50 uM incubated for 30 mins by AFM imaging analysis; format: protein assay
[8] = molecular target: Alpha amylase (Homo sapiens) (UniProt P0DUB6); assay: Inhibition of alpha-amylase (unknown origin) assessed as increase in enzyme particle thickness at 50 uM incubated for 30 mins by AFM imaging analysis; format: protein assay
[9] = Cytotoxicity against HEK293 cells assessed as cell viability at 60 uM incubated for 1 day by MTT assay relative to control; format: toxicity, cell-based; details: human, read-out: Activity
[10] = Cytotoxicity against HEK293 cells incubated for 1 day by MTT assay; format: toxicity, cell-based; details: human
Mus musculus [11] = assay: Reduction in blood glucose concentration in male Kunming mouse at 20 mg/kg, IG preadministered for 40 mins followed by saccharose addition and measured after 30 mins by sucrose loading test; format: functional, organism-based; details: time 70.0 min
Mus musculus [12] = assay: Reduction in blood glucose concentration in male Kunming mouse assessed as decrease in AUC at 20 mg/kg, IG preadministered for 40 mins followed by saccharose addition and measured after 150 mins by sucrose loading test relative to control; format: functional; design: scale not given: the % may be the effect or the level left; details: time 190 min, 3.167 h
[13] = molecular target: T4, Alpha-glucosidase (Saccharomyces cerevisiae S288c) (UniProt P53341+P38158+P07265); assay: Mixed-type inhibition of Saccharomyces cerevisiae alpha-glucosidase using p-nitrophenyl-alpha-D-glucopyranoside as substrate assessed as decrease in Km and Vmax upto 20 uM incubated for 7 mins by spectrophotometer based Lineweaver-Burk plot analysis; format: protein assay
Alpha-glucosidase [14] = molecular target: T1, Alpha-glucosidase; assay: Inhibition of Saccharomyces cerevisiae alpha-glucosidase using p-nitrophenyl-alpha-D-glucopyranoside as substrate assessed as inhibition constant of enzyme-substrate complex incubated for 7 mins by spectrophotometer based Lineweaver-Burk plot analysis; format: protein assay
[15] = molecular target: T4, Alpha-glucosidase (Saccharomyces cerevisiae S288c); assay: Inhibition of alpha-glucosidase (unknown origin) assessed as effect on secondary structure by measuring reduction in alpha-helix content at 5 uM by CD spectra (reference value: 32.1 %); format: protein assay; design: scale not given: the % may be the effect or the level left; details: Homo sapiens
[16] = molecular target: T4, Alpha-glucosidase (Saccharomyces cerevisiae S288c); assay: Inhibition of alpha-glucosidase (unknown origin) assessed as effect on secondary structure by measuring reduction in alpha-helix content at 10 uM by CD spectra (reference value: 32.1 %); format: protein assay; design: scale not given: the % may be the effect or the level left; details: Homo sapiens
[17] = molecular target: T4, Alpha-glucosidase (Saccharomyces cerevisiae S288c); assay: Inhibition of alpha-glucosidase (unknown origin) assessed as effect on secondary structure by measuring reduction in alpha-helix content at 20 uM by CD spectra (reference value: 32.1 %); format: protein assay; design: scale not given: the % may be the effect or the level left; details: Homo sapiens
[18] = molecular target: T4, Alpha-glucosidase (Saccharomyces cerevisiae S288c); assay: Inhibition of alpha-glucosidase (unknown origin) assessed as effect on secondary structure by measuring reduction in alpha-helix content at 30 uM by CD spectra (reference value: 32.1 %); format: protein assay; design: scale not given: the % may be the effect or the level left; details: Homo sapiens
[19] = molecular target: T4, Alpha-glucosidase (Saccharomyces cerevisiae S288c); assay: Inhibition of alpha-glucosidase (unknown origin) assessed as effect on secondary structure by measuring beta-sheet content at 5 uM by CD spectra (reference value: 18.1 %); format: protein assay; design: scale not given: the % may be the effect or the level left
[20] = molecular target: T4, Alpha-glucosidase (Saccharomyces cerevisiae S288c); assay: Inhibition of alpha-glucosidase (unknown origin) assessed as effect on secondary structure by measuring beta-sheet content at 10 uM by CD spectra (reference value: 18.1 %); format: protein assay; design: scale not given: the % may be the effect or the level left
[21] = molecular target: T4, Alpha-glucosidase (Saccharomyces cerevisiae S288c); assay: Inhibition of alpha-glucosidase (unknown origin) assessed as effect on secondary structure by measuring beta-sheet content at 20 uM by CD spectra (reference value: 18.1 %); format: protein assay; design: scale not given: the % may be the effect or the level left
[22] = molecular target: T4, Alpha-glucosidase (Saccharomyces cerevisiae S288c); assay: Inhibition of alpha-glucosidase (unknown origin) assessed as effect on secondary structure by measuring beta-sheet content at 30 uM by CD spectra (reference value: 18.1 %); format: protein assay; design: scale not given: the % may be the effect or the level left
[23] = molecular target: T4, Alpha-glucosidase (Saccharomyces cerevisiae S288c); assay: Inhibition of alpha-glucosidase (unknown origin) assessed as effect on secondary structure by measuring beta-turn content at 5 uM by CD spectra (reference value: 17.1 %); format: protein assay; design: scale not given: the % may be the effect or the level left; details: Homo sapiens
[24] = molecular target: T4, Alpha-glucosidase (Saccharomyces cerevisiae S288c); assay: Inhibition of alpha-glucosidase (unknown origin) assessed as effect on secondary structure by measuring beta-turn content at 10 uM by CD spectra (reference value: 17.1 %); format: protein assay; design: scale not given: the % may be the effect or the level left
[25] = molecular target: T4, Alpha-glucosidase (Saccharomyces cerevisiae S288c); assay: Inhibition of alpha-glucosidase (unknown origin) assessed as effect on secondary structure by measuring beta-turn content at 20 uM by CD spectra (reference value: 17.1 %); format: protein assay; design: scale not given: the % may be the effect or the level left
[26] = molecular target: T4, Alpha-glucosidase (Saccharomyces cerevisiae S288c); assay: Inhibition of alpha-glucosidase (unknown origin) assessed as effect on secondary structure by measuring beta-turn content at 30 uM by CD spectra (reference value: 17.1 %); format: protein assay; design: scale not given: the % may be the effect or the level left
[27] = molecular target: T4, Alpha-glucosidase (Saccharomyces cerevisiae S288c); assay: Inhibition of alpha-glucosidase (unknown origin) assessed as effect on secondary structure by measuring random coil content at 5 uM by CD spectra (reference value: 33.1 %); format: protein assay; design: scale not given: the % may be the effect or the level left; details: Homo sapiens
[28] = molecular target: T4, Alpha-glucosidase (Saccharomyces cerevisiae S288c); assay: Inhibition of alpha-glucosidase (unknown origin) assessed as effect on secondary structure by measuring random coil content at 10 uM by CD spectra (reference value: 33.1 %); format: protein assay; design: scale not given: the % may be the effect or the level left; details: Homo sapiens
[29] = molecular target: T4, Alpha-glucosidase (Saccharomyces cerevisiae S288c); assay: Inhibition of alpha-glucosidase (unknown origin) assessed as effect on secondary structure by measuring random coil content at 20 uM by CD spectra (reference value: 33.1 %); format: protein assay; design: scale not given: the % may be the effect or the level left
[30] = molecular target: T4, Alpha-glucosidase (Saccharomyces cerevisiae S288c); assay: Inhibition of alpha-glucosidase (unknown origin) assessed as effect on secondary structure by measuring random coil content at 30 uM by CD spectra (reference value: 33.1 %); format: protein assay; design: scale not given: the % may be the effect or the level left; details: Homo sapiens
[31] = molecular target: T4, Alpha-glucosidase (Saccharomyces cerevisiae S288c); assay: Inhibition of alpha-glucosidase (unknown origin) assessed as increase in enzyme particle size at 1 uM incubated for 15 mins by AFM imaging analysis; format: protein assay
[32] = molecular target: T4, Alpha-glucosidase (Saccharomyces cerevisiae S288c); assay: Inhibition of alpha-glucosidase (unknown origin) assessed as increase in enzyme particle thickness at 1 uM incubated for 15 mins by AFM imaging analysis; format: protein assay

Sequence of Alpha amylase (Homo sapiens) (P0DUB6 whole entry, looked up): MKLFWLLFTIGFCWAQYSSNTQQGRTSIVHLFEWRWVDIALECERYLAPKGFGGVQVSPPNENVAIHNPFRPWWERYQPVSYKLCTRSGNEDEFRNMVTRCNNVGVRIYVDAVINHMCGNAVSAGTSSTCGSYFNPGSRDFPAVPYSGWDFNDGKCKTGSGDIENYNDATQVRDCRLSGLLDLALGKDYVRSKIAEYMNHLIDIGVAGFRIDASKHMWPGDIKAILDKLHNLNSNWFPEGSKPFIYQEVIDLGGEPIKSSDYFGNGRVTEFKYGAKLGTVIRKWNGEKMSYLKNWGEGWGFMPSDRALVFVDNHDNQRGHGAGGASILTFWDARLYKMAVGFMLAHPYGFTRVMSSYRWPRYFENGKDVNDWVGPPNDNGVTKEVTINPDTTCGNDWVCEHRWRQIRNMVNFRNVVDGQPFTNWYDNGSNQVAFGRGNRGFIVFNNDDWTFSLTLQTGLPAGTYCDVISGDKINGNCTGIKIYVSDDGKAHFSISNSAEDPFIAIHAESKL

O=C(CSc1nnc(CCn2c3ccccc3c3ccccc32)o1)Nc1ccc(F)cc1
IC50 (Alpha-glucosidase [1]): 27.73 µM | IC50 (Alpha-amylase [2]): 45.5 µM | Ki (Alpha-glucosidase [3]): 22.04 µM | inhibition [4]: Active | Ki (Alpha-amylase [5]): 45.1 µM | Ki (Alpha-amylase [6]): 63.3 µM | inhibition [7]: Active | inhibition [8]: Active | viability at 24 h, 60 µM [9]: 90.3% | IC50 at 1 day [10]: 181 µM | Activity (Mus musculus [11]): Active | Activity (Mus musculus [12]): 10.66%

Cc1ccc(NC(=O)CSc2nnc(CCn3c4ccccc4c4ccccc43)o2)c(C)c1
IC50 (Alpha-glucosidase [1]): > 300 µM | IC50 (Alpha-amylase [2]): 120 µM

O=C(CSc1nnc(CCn2c3ccccc3c3ccccc32)o1)Nc1ccc(Cl)cc1Cl
IC50 (Alpha-glucosidase [1]): 92.05 µM | IC50 (Alpha-amylase [2]): 94.3 µM

O=C(CSc1nnc(CCn2c3ccccc3c3ccccc32)o1)Nc1ccc(Oc2ccccc2)cc1
IC50 (Alpha-glucosidase [1]): 39.52 µM | IC50 (Alpha-amylase [2]): 74.8 µM

O=C(CSc1nnc(CCn2c3ccccc3c3ccccc32)o1)Nc1ccc([N+](=O)[O-])cc1
IC50 (Alpha-glucosidase [1]): 22.22 µM | IC50 (Alpha-amylase [2]): 86.3 µM

Cc1ccc(NC(=O)CSc2nnc(CCn3c4ccccc4c4ccccc43)o2)c([N+](=O)[O-])c1
IC50 (Alpha-glucosidase [1]): 67.35 µM | IC50 (Alpha-amylase [2]): 54.6 µM

O=C(CSc1nnc(CCn2c3ccccc3c3ccccc32)o1)Nc1ccccc1
IC50 (Alpha-glucosidase [1]): 43.26 µM | IC50 (Alpha-amylase [2]): 56.2 µM

O=C(CSc1nnc(CCn2c3ccccc3c3ccccc32)o1)Nc1ccc(Cl)cc1
IC50 (Alpha-glucosidase [1]): 22.07 µM | IC50 (Alpha-amylase [2]): 83.2 µM

C[C@H]1O[C@H](O[C@H]2[C@H](O)[C@@H](O)[C@@H](O[C@H]3[C@H](O)[C@@H](O)C(O)O[C@@H]3CO)O[C@@H]2CO)[C@H](O)[C@@H](O)[C@@H]1N[C@H]1C=C(CO)[C@@H](O)[C@H](O)[C@H]1O (some centres undefined) [ACARBOSE]
Activity (Mus musculus [11]): Active | Activity (Mus musculus [12]): 28.57%

COc1ccc(NC(=O)CSc2nnc(CCn3c4ccccc4c4ccccc43)o2)c([N+](=O)[O-])c1
IC50 (Alpha-glucosidase [1]): 85.95 µM | IC50 (Alpha-amylase [2]): 64.6 µM

Cc1cccc(NC(=O)CSc2nnc(CCn3c4ccccc4c4ccccc43)o2)c1
IC50 (Alpha-glucosidase [1]): 66.89 µM | IC50 (Alpha-amylase [2]): 81.2 µM

Cc1ccccc1NC(=O)CSc1nnc(CCn2c3ccccc3c3ccccc32)o1
IC50 (Alpha-glucosidase [1]): > 300 µM | IC50 (Alpha-amylase [2]): > 200 µM

Cc1ccc(NC(=O)CSc2nnc(CCn3c4ccccc4c4ccccc43)o2)cc1
IC50 (Alpha-glucosidase [1]): 80.64 µM | IC50 (Alpha-amylase [2]): 126 µM

CCOc1ccc(NC(=O)CSc2nnc(CCn3c4ccccc4c4ccccc43)o2)cc1
IC50 (Alpha-glucosidase [1]): 21.39 µM | IC50 (Alpha-amylase [2]): 61.5 µM | inhibition [13]: Active | Ki (Alpha-glucosidase [14]): 13.19 µM | Activity [15]: 28.9% | Activity [16]: 28.5% | Activity [17]: 25.7% | Activity [18]: 25.1% | Activity [19]: 20% | Activity [20]: 20.3% | Activity [21]: 22.4% | Activity [22]: 22.9% | Activity [23]: 17.7% | Activity [24]: 17.8% | Activity [25]: 18.4% | Activity [26]: 18.5% | Activity [27]: 35.3% | Activity [28]: 36.1% | Activity [29]: 38.1% | Activity [30]: 38.8% | inhibition [31]: Active | inhibition [32]: Active | viability at 24 h, 60 µM [9]: 96.1% | IC50 at 1 day [10]: 193 µM | Activity (Mus musculus [11]): Active | Activity (Mus musculus [12]): 11.74%

O=C(CSc1nnc(CCn2c3ccccc3c3ccccc32)o1)Nc1ccc(Cl)cc1[N+](=O)[O-]
IC50 (Alpha-glucosidase [1]): 37.96 µM | IC50 (Alpha-amylase [2]): 89.7 µM
